# The NIST ThermoML archive (doi:10.1021/je700260f)
# Numbers after ± are expanded uncertainties.
# Conditions: 323.14 K, Liquid, Vibrating tube method
smiles,measurement,setting,value
"FC(C(F)(F)F)C(F)(F)F [1,1,1,2,3,3,3-heptafluoropropane]",mass density,4100 kPa,1311 ± 1.5 kg/m3
same,mass density,4120 kPa,1311.1 ± 1.5 kg/m3
same,mass density,4140 kPa,1311.5 ± 1.5 kg/m3
same,mass density,4170 kPa,1311.8 ± 1.5 kg/m3
same,mass density,4190 kPa,1312 ± 1.5 kg/m3
same,mass density,4220 kPa,1312.3 ± 1.5 kg/m3
same,mass density,4240 kPa,1312.4 ± 1.5 kg/m3
same,mass density,4270 kPa,1312.8 ± 1.5 kg/m3
same,mass density,4290 kPa,1313.1 ± 1.5 kg/m3
same,mass density,4310 kPa,1313.2 ± 1.5 kg/m3
same,mass density,4330 kPa,1313.5 ± 1.5 kg/m3
same,mass density,4360 kPa,1313.8 ± 1.5 kg/m3
same,mass density,4380 kPa,1313.9 ± 1.5 kg/m3
same,mass density,4400 kPa,1314.2 ± 1.5 kg/m3
same,mass density,4420 kPa,1314.6 ± 1.5 kg/m3
same,mass density,4440 kPa,1314.6 ± 1.5 kg/m3
same,mass density,4470 kPa,1314.9 ± 1.5 kg/m3
same,mass density,4500 kPa,1315.2 ± 1.5 kg/m3
same,mass density,4510 kPa,1315.3 ± 1.5 kg/m3
same,mass density,4540 kPa,1315.5 ± 1.5 kg/m3
same,mass density,4560 kPa,1315.8 ± 1.5 kg/m3
same,mass density,4590 kPa,1316 ± 1.5 kg/m3
same,mass density,4610 kPa,1316.2 ± 1.5 kg/m3
same,mass density,4640 kPa,1316.6 ± 1.5 kg/m3
same,mass density,4660 kPa,1316.8 ± 1.5 kg/m3
same,mass density,4690 kPa,1317.1 ± 1.5 kg/m3
same,mass density,4710 kPa,1317.3 ± 1.5 kg/m3
same,mass density,4740 kPa,1317.6 ± 1.5 kg/m3
same,mass density,4960 kPa,1319.7 ± 1.5 kg/m3
same,mass density,4980 kPa,1320.1 ± 1.5 kg/m3
same,mass density,5020 kPa,1320.3 ± 1.5 kg/m3
same,mass density,5040 kPa,1320.6 ± 1.5 kg/m3
same,mass density,5070 kPa,1320.9 ± 1.5 kg/m3
same,mass density,5100 kPa,1321.1 ± 1.5 kg/m3
same,mass density,5130 kPa,1321.4 ± 1.5 kg/m3
same,mass density,5150 kPa,1321.7 ± 1.5 kg/m3
same,mass density,5180 kPa,1321.7 ± 1.5 kg/m3
same,mass density,5200 kPa,1322 ± 1.5 kg/m3
same,mass density,5220 kPa,1322.3 ± 1.5 kg/m3
same,mass density,5250 kPa,1322.6 ± 1.5 kg/m3
same,mass density,5280 kPa,1322.9 ± 1.5 kg/m3
same,mass density,5310 kPa,1323.2 ± 1.5 kg/m3
same,mass density,5330 kPa,1323.3 ± 1.5 kg/m3
same,mass density,5360 kPa,1323.7 ± 1.5 kg/m3
same,mass density,5390 kPa,1323.9 ± 1.5 kg/m3
same,mass density,5420 kPa,1324.1 ± 1.5 kg/m3
same,mass density,5440 kPa,1324.3 ± 1.5 kg/m3
same,mass density,5470 kPa,1324.7 ± 1.5 kg/m3
same,mass density,5490 kPa,1324.9 ± 1.5 kg/m3
same,mass density,5520 kPa,1325.2 ± 1.5 kg/m3
same,mass density,5540 kPa,1325.4 ± 1.5 kg/m3
same,mass density,5570 kPa,1325.7 ± 1.5 kg/m3
same,mass density,5600 kPa,1325.9 ± 1.5 kg/m3
same,mass density,5630 kPa,1326.2 ± 1.5 kg/m3
same,mass density,5650 kPa,1326.4 ± 1.5 kg/m3
same,mass density,5670 kPa,1326.6 ± 1.5 kg/m3
same,mass density,5960 kPa,1329.4 ± 1.5 kg/m3
same,mass density,5990 kPa,1329.5 ± 1.5 kg/m3
same,mass density,6010 kPa,1329.7 ± 1.5 kg/m3
same,mass density,6030 kPa,1330 ± 1.5 kg/m3
same,mass density,6050 kPa,1330 ± 1.5 kg/m3
same,mass density,6080 kPa,1330.3 ± 1.5 kg/m3
same,mass density,6100 kPa,1330.6 ± 1.5 kg/m3
same,mass density,6120 kPa,1330.7 ± 1.5 kg/m3
same,mass density,6140 kPa,1330.8 ± 1.5 kg/m3
same,mass density,6160 kPa,1331.1 ± 1.5 kg/m3
same,mass density,6180 kPa,1331.2 ± 1.5 kg/m3
same,mass density,6200 kPa,1331.4 ± 1.5 kg/m3
same,mass density,6230 kPa,1331.8 ± 1.5 kg/m3
same,mass density,6240 kPa,1331.8 ± 1.5 kg/m3
same,mass density,6270 kPa,1332 ± 1.5 kg/m3
same,mass density,6290 kPa,1332.4 ± 1.5 kg/m3
same,mass density,6310 kPa,1332.4 ± 1.5 kg/m3
same,mass density,6330 kPa,1332.6 ± 1.5 kg/m3
same,mass density,6350 kPa,1333 ± 1.5 kg/m3
same,mass density,6380 kPa,1333.1 ± 1.5 kg/m3
same,mass density,6390 kPa,1333.3 ± 1.5 kg/m3
same,mass density,6410 kPa,1333.5 ± 1.5 kg/m3
same,mass density,6463 kPa,1333.8 ± 1.5 kg/m3
same,mass density,6556 kPa,1334.6 ± 1.5 kg/m3
same,mass density,6581 kPa,1334.8 ± 1.5 kg/m3
same,mass density,6778 kPa,1336.5 ± 1.5 kg/m3
same,mass density,6803 kPa,1336.7 ± 1.5 kg/m3
same,mass density,6825 kPa,1337 ± 1.5 kg/m3
same,mass density,6840 kPa,1337.1 ± 1.5 kg/m3
same,mass density,6865 kPa,1337.3 ± 1.5 kg/m3
same,mass density,6881 kPa,1337.4 ± 1.5 kg/m3
same,mass density,6903 kPa,1337.7 ± 1.5 kg/m3
same,mass density,6923 kPa,1337.8 ± 1.5 kg/m3
same,mass density,6947 kPa,1338.1 ± 1.5 kg/m3
same,mass density,6974 kPa,1338.2 ± 1.5 kg/m3
same,mass density,7006 kPa,1338.7 ± 1.5 kg/m3
same,mass density,7056 kPa,1338.9 ± 1.5 kg/m3
same,mass density,7083 kPa,1339.2 ± 1.5 kg/m3
same,mass density,7103 kPa,1339.4 ± 1.5 kg/m3
same,mass density,7124 kPa,1339.5 ± 1.5 kg/m3
same,mass density,7147 kPa,1339.7 ± 1.5 kg/m3
same,mass density,7168 kPa,1339.9 ± 1.5 kg/m3
same,mass density,7194 kPa,1340.2 ± 1.5 kg/m3
same,mass density,7215 kPa,1340.4 ± 1.5 kg/m3
same,mass density,7245 kPa,1340.6 ± 1.5 kg/m3
same,mass density,7268 kPa,1340.7 ± 1.5 kg/m3
same,mass density,7292 kPa,1341 ± 1.5 kg/m3
same,mass density,7328 kPa,1341.3 ± 1.5 kg/m3
same,mass density,7350 kPa,1341.5 ± 1.5 kg/m3
same,mass density,7375 kPa,1341.7 ± 1.5 kg/m3
same,mass density,7395 kPa,1341.7 ± 1.5 kg/m3
same,mass density,7423 kPa,1342.1 ± 1.5 kg/m3
same,mass density,7444 kPa,1342.2 ± 1.5 kg/m3
same,mass density,7468 kPa,1342.4 ± 1.5 kg/m3
same,mass density,7492 kPa,1342.6 ± 1.5 kg/m3
same,mass density,7516 kPa,1342.8 ± 1.5 kg/m3
same,mass density,7540 kPa,1343.1 ± 1.5 kg/m3
same,mass density,7566 kPa,1343.2 ± 1.5 kg/m3
same,mass density,7592 kPa,1343.5 ± 1.5 kg/m3
same,mass density,7619 kPa,1343.7 ± 1.5 kg/m3
same,mass density,7640 kPa,1344 ± 1.5 kg/m3
same,mass density,7661 kPa,1344.2 ± 1.5 kg/m3
same,mass density,7683 kPa,1344.2 ± 1.5 kg/m3
same,mass density,7702 kPa,1344.3 ± 1.5 kg/m3
same,mass density,7719 kPa,1344.5 ± 1.5 kg/m3
same,mass density,7741 kPa,1344.7 ± 1.5 kg/m3
same,mass density,7761 kPa,1344.8 ± 1.5 kg/m3
same,mass density,7781 kPa,1345 ± 1.5 kg/m3
same,mass density,7801 kPa,1345.1 ± 1.5 kg/m3
same,mass density,7818 kPa,1345.3 ± 1.5 kg/m3
same,mass density,7837 kPa,1345.4 ± 1.5 kg/m3
same,mass density,7859 kPa,1345.7 ± 1.5 kg/m3
same,mass density,7878 kPa,1345.9 ± 1.5 kg/m3
same,mass density,7903 kPa,1346 ± 1.5 kg/m3
same,mass density,7924 kPa,1346 ± 1.5 kg/m3
same,mass density,7964 kPa,1346.4 ± 1.5 kg/m3
same,mass density,8025 kPa,1347 ± 1.5 kg/m3
same,mass density,8049 kPa,1347.2 ± 1.5 kg/m3
same,mass density,8068 kPa,1347.2 ± 1.5 kg/m3
same,mass density,8087 kPa,1347.4 ± 1.5 kg/m3
same,mass density,8101 kPa,1347.6 ± 1.5 kg/m3
same,mass density,8118 kPa,1347.7 ± 1.5 kg/m3
same,mass density,8142 kPa,1347.8 ± 1.5 kg/m3
same,mass density,8162 kPa,1348.1 ± 1.5 kg/m3
same,mass density,8181 kPa,1348.2 ± 1.5 kg/m3
same,mass density,8197 kPa,1348.3 ± 1.5 kg/m3
same,mass density,8219 kPa,1348.6 ± 1.5 kg/m3
same,mass density,8234 kPa,1348.6 ± 1.5 kg/m3
same,mass density,8250 kPa,1348.9 ± 1.5 kg/m3
same,mass density,8266 kPa,1348.7 ± 1.5 kg/m3
same,mass density,8284 kPa,1349 ± 1.5 kg/m3
same,mass density,8300 kPa,1349.3 ± 1.5 kg/m3
same,mass density,8316 kPa,1349.2 ± 1.5 kg/m3
same,mass density,8385 kPa,1349.8 ± 1.5 kg/m3
same,mass density,8410 kPa,1350.2 ± 1.5 kg/m3
same,mass density,8432 kPa,1350.1 ± 1.5 kg/m3
same,mass density,8450 kPa,1350.4 ± 1.5 kg/m3
same,mass density,8914 kPa,1353.9 ± 1.5 kg/m3
same,mass density,8936 kPa,1354.2 ± 1.5 kg/m3
same,mass density,8952 kPa,1354.1 ± 1.5 kg/m3
same,mass density,8977 kPa,1354.5 ± 1.5 kg/m3
same,mass density,8991 kPa,1354.6 ± 1.5 kg/m3
same,mass density,9010 kPa,1354.7 ± 1.5 kg/m3
same,mass density,9030 kPa,1354.9 ± 1.5 kg/m3
same,mass density,9051 kPa,1354.9 ± 1.5 kg/m3
same,mass density,9072 kPa,1355.2 ± 1.5 kg/m3
same,mass density,9092 kPa,1355.3 ± 1.5 kg/m3
same,mass density,9115 kPa,1355.4 ± 1.5 kg/m3
same,mass density,9133 kPa,1355.7 ± 1.5 kg/m3
same,mass density,9154 kPa,1355.8 ± 1.5 kg/m3
same,mass density,9171 kPa,1355.9 ± 1.5 kg/m3
same,mass density,9191 kPa,1356.1 ± 1.5 kg/m3
same,mass density,9214 kPa,1356.3 ± 1.5 kg/m3
same,mass density,9238 kPa,1356.3 ± 1.5 kg/m3
same,mass density,9264 kPa,1356.7 ± 1.5 kg/m3
same,mass density,9290 kPa,1356.9 ± 1.5 kg/m3
same,mass density,9305 kPa,1357 ± 1.5 kg/m3
same,mass density,9326 kPa,1357.1 ± 1.5 kg/m3
same,mass density,9347 kPa,1357.2 ± 1.5 kg/m3
same,mass density,9371 kPa,1357.4 ± 1.5 kg/m3
same,mass density,9389 kPa,1357.5 ± 1.5 kg/m3
same,mass density,9411 kPa,1357.8 ± 1.5 kg/m3
same,mass density,9432 kPa,1357.9 ± 1.5 kg/m3
same,mass density,9459 kPa,1358.1 ± 1.5 kg/m3
same,mass density,9483 kPa,1358.2 ± 1.5 kg/m3
same,mass density,9503 kPa,1358.4 ± 1.5 kg/m3
same,mass density,9521 kPa,1358.4 ± 1.5 kg/m3
same,mass density,9543 kPa,1358.6 ± 1.5 kg/m3
same,mass density,9559 kPa,1358.9 ± 1.5 kg/m3
same,mass density,9574 kPa,1358.9 ± 1.5 kg/m3
same,mass density,9596 kPa,1359 ± 1.5 kg/m3
same,mass density,9618 kPa,1359.2 ± 1.5 kg/m3
same,mass density,9639 kPa,1359.5 ± 1.5 kg/m3
same,mass density,9657 kPa,1359.5 ± 1.5 kg/m3
same,mass density,9681 kPa,1359.8 ± 1.5 kg/m3
same,mass density,9700 kPa,1359.9 ± 1.5 kg/m3
same,mass density,9913 kPa,1361.5 ± 1.5 kg/m3
same,mass density,9929 kPa,1361.6 ± 1.5 kg/m3
same,mass density,9948 kPa,1361.8 ± 1.5 kg/m3
same,mass density,9976 kPa,1361.9 ± 1.5 kg/m3
same,mass density,9997 kPa,1362.1 ± 1.5 kg/m3
same,mass density,10019 kPa,1362.3 ± 1.5 kg/m3
same,mass density,10043 kPa,1362.2 ± 1.5 kg/m3
same,mass density,10066 kPa,1362.5 ± 1.5 kg/m3
same,mass density,10083 kPa,1362.6 ± 1.5 kg/m3
same,mass density,10105 kPa,1362.8 ± 1.5 kg/m3
same,mass density,10130 kPa,1363 ± 1.5 kg/m3
same,mass density,10153 kPa,1363.3 ± 1.5 kg/m3
same,mass density,10170 kPa,1363.3 ± 1.5 kg/m3
